This passage reports IC50 results from patent publication US8471004B2, “Bicyclic compounds” (Hoffman-La Roche Inc., priority 2009, dated 2013).

The structures appear in SMILES notation.

The target in the experiment is T1, human chemokine receptor 2 isoform B (Homo sapiens, UniProt P41597).
T1 construct: host or cells: CHOK1-CCR2B-A5 (CHO-K1)
T1 sequence (P41597 1-360 isoform P41597-2): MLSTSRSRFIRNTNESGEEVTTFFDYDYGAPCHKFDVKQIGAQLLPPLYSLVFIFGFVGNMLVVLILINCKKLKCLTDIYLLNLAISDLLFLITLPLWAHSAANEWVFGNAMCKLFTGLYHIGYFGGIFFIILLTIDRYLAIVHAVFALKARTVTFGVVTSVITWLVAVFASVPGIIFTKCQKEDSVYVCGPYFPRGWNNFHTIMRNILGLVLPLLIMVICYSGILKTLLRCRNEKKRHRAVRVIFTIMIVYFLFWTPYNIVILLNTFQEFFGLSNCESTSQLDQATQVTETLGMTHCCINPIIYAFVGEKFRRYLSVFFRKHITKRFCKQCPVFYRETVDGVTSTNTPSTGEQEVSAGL
Put plainly: Calcium mobilization assay (CHOK1-CCR2B-A5 cells, FLIPR, MCP-1 stimulated). The experiment is classed as cell-based. The settings on record: Ca mobilisation assay for CCR2, antagonist activity, 50% inhibition of specific calcium increases after 20 nM MCP-1. The method, boiled down: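 Antagonism read as IC50 against 20 nM MCP-1-evoked calcium rise (peak minus baseline Fluo-4 signal, FLIPR) in CCR2B-overexpressing CHO-K1 cells. Compounds were preincubated 20-30 min at 30 °C, with agonist activity recorded for 80 s on addition.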
(In general: Calcium flux is commonly read through the fluorescence of an indicator in the cells.)
In the case of `C[C@H]1C(=O)N2C(CN1C(=O)Nc1ccc(Cl)c(Cl)c1)OCCC[C@H]2CN1CCC2(CC2)[C@H](O)C1` (stereo partly drawn) [Example 28, (3S,5S)-5-((S)-4-Hydroxy-6-aza-spiro[2.5]oct-6-ylmethyl)-3-methyl-4-oxo-octahydro-9-oxa-2,4a-diaza-benzocycloheptene-2-carboxylic acid (3,4-dichloro-phenyl)-amide], the IC50 – broadly, the concentration needed to halve the response being measured – worked out at 0.0037 µM.

As to `C[C@H]1C(=O)N2[C@@H](CCC(=O)N3CCC4(CC4)[C@H](O)C3)CC[C@H]2CN1C(=O)Nc1ccc(C(F)(F)F)c(Cl)c1` [Example 43, (3S,6R,8aS)-6-[3-((S)-4-Hydroxy-6-aza-spiro[2.5]oct-6-yl)-3-oxo-propyl]-3-methyl-4-oxo-hexahydro-pyrrolo[1,2-a]pyrazine-2-carboxylic acid (3-chloro-4-trifluoromethyl-phenyl)-amide], the IC50 is 0.0205 µM.

With `C[C@H]1C(=O)N2[C@@H](CCCN3CCC4(CC4)[C@H](O)C3)CO[C@]2(C)CN1C(=O)Nc1ccc(Cl)c(Cl)c1` [Example 22, (3S,6S,8aR)-3-[3-((S)-4-hydroxy-6-aza-spiro[2.5]oct-6-yl)-propyl]-6,8a-dimethyl-5-oxo-hexahydro-oxazolo[3,2-a]pyrazine-7-carboxylic acid (3,4-dichloro-phenyl)-amide], the IC50 was determined as 0.0274 µM.

`C[C@H]1C(=O)N2[C@@H](CCN3CCC4(CC4)C(F)(F)C3)COC[C@H]2CN1C(=O)Nc1ccc(C(F)(F)F)c(Cl)c1` [Example 55, (4S,7S,9aR)—N-(3-chloro-4-(trifluoromethyl)phenyl)-4-(2-(4,4-difluoro-6-azaspiro[2.5]octan-6-yl)ethyl)-7-methyl-6-oxohexahydropyrazino[2,1-c][1,4]oxazine-8(1H)-carboxamide]: the IC50 was 0.0343 µM.

With `C[C@H]1C(=O)N2[C@@H](CCN3CCC4(CC4)[C@H](O)C3)CC[C@H]2CN1C(=O)Nc1ccc(Cl)c(Cl)c1` [Example 33, (3S,6R,8aS)-6-[2-((S)-4-Hydroxy-6-aza-spiro[2.5]oct-6-yl)-ethyl]-3-methyl-4-oxo-hexahydro-pyrrolo[1,2-a]pyrazine-2-carboxylic acid (3,4-dichloro-phenyl)-amide], the IC50 was 0.0027 µM.
